In US10779537B2, “1H-pyrrolopyridine compound, N-oxide thereof or salt thereof, agricultural and horticultural insecticide comprising the compound, and method for using the insecticide” (Nihon Nohyaku Co., Ltd., priority 2016, dated 2020):

Columns and labels:
[1] = test system: Laodelphax striatellus; assay: Insecticidal test on Laodelphax striatellus (rice seedling dip); format: in vivo; conditions: 192 h, rice seedlings dipped 30 seconds, ten 3rd-instar larvae, 8 days after inoculation, read-out: insecticidal efficacy (corrected mortality rate)
Source text: Insecticidal Test on Laodelphax striatellus
The condensed heterocyclic compounds represented by the general formula (1) of the present invention or salts thereof were separately dispersed in water and diluted to 500 ppm. Rice plant seedlings (variety: Nihonbare) were dipped in the agrochemical dispersions for 30 seconds. After air-dried, each seedling was put into a separate glass test tube and inoculated with ten 3rd-instar larvae of Laodelphax striatellus, and then the glass test tubes were capped with cotton plugs. At 8 days after the inoculation, the numbers of surviving larvae and dead larvae were counted, the corrected mortality rate was calculated according to the formula shown below, and the insecticidal efficacy was evaluated according to the criteria shown below. Corrected mortality rate (%)=100×(Survival rate in a non-treatment plot−Survival rate in a treatment plot)/Survival rate in a non-treatment plot [Math. 2] Corrected Mortality Rate A: the corrected mortality rate is 100%. B: the corrected mortality rate is 90 to 99%. C: the corrected mortality rate is 80 to 89%. D: the corrected mortality rate is 50 to 79%.

[2] = test system: Plutella xylostella; assay: Insecticidal test on Plutella xylostella (dip of Chinese cabbage seedlings with laid eggs); format: in vivo; conditions: 144 h, seedlings with laid eggs dipped about 30 seconds, 25° C., 6 days after dip treatment, criteria of Test Example 2, read-out: insecticidal efficacy (corrected mortality rate, hatched larvae)
Source text: Insecticidal Test on Plutella xylostella
Adults of Plutella xylostella were released onto Chinese cabbage seedlings and allowed to lay eggs thereon. At 2 days after the release of the adults, the Chinese cabbage seedlings with laid eggs were dipped for about 30 seconds in agrochemical dispersions diluted to 500 ppm, each of which contained a different condensed heterocyclic compound represented by the general formula (1) of the present invention as an active ingredient. After air-dried, the seedlings were kept in a thermostatic chamber at 25° C. At 6 days after the dip treatment, the number of hatched larvae per plot was counted, the mortality rate was calculated according to the formula shown below, and the insecticidal efficacy was evaluated according to the criteria of Test Example 2. This test was conducted in triplicate using 10 adults of Plutella xylostella per plot. Corrected mortality rate (%)=100×(Number of hatched larvae in a non-treatment plot−Number of hatched larvae in a treatment plot)/Number of hatched larvae in a non-treatment plot [Math. 3]

SMILES	mortality at 500 ppm [1] [%]	mortality at 500 ppm [2] [%]
CCS(=O)(=O)c1cc(C(F)(F)F)cnc1-c1[nH]c2cc(C(F)(F)F)cnc2c1F [Compound 1-75, 2-(3-ethylsulfonyl-5-trifluoromethylpyridin-2-yl)-3-fluoro-6-trifluoromethyl-1H-pyrrolo[3,2-b]pyridine]	100	100
CCS(=O)(=O)c1cc(C(F)(F)F)cnc1-c1[nH]c2cc(C(F)(F)F)cnc2c1Cl [Compound 1-76, 2-(3-ethylsulfonyl-5-trifluoromethylpyridin-2-yl)-3-chloro-6-trifluoromethyl-1H-pyrrolo[3,2-b]pyridine]	100	100
CCS(=O)(=O)c1cc(C(F)(F)F)cnc1-c1[nH]c2cc(C(F)(F)F)cnc2c1Br [Compound 1-77, 2-(3-ethylsulfonyl-5-trifluoromethylpyridin-2-yl)-3-bromo-6-trifluoromethyl-1H-pyrrolo[3,2-b]pyridine]	100	100
CCS(=O)(=O)c1cc(C(F)(F)F)cnc1-c1c(Cl)c2ncc(C(F)(F)F)cc2n1C(C)=O [Compound 3-3, 1-acetyl-2-(3-ethylsulfonyl-5-trifluoromethylpyridin-2-yl)-3-chloro-6-trifluoromethyl-1H-pyrrolo[3,2-b]pyridine]	100	100
